# Test results published in US20080262008A1, “CRYSTALLINE FORMS AND POLYMORPHS OF N-(3-(DIMETHYLAMINO)PROPYL)-4-(4-(3-FLUORO-4-METHOXYPHENYL) PYRIMIDIN-2-YLAMINO) BENZENESULFONAMIDE AS SUCCINATE SALTS” (Wyeth, priority 2007, published 2008).
# Assays:
# [1] = solubility of the free base in solvents; assay type: physicochemical; details: free base form
# Experimental: For example, acetone is needed to dissolve the free base at 50° C. […] HCl, phosphoric acid, tartaric acid, acetic acid, D-glucoronic acid and succinic acid were used to prepare pharmaceutically acceptable salts of compound 3. One crystalline form of compound 3 as a mono-succinate salt and five crystalline polymorphs of compound 3 as a hemi-succinate salt are provided in the Examples.
# water solubility = assay type: physicochemical
Compound,"solubility in THF, DMSO and DMF [1]","solubility in group 3 solvents, including water [1]","Solubility in water (water solubility; free base, thermogravimeteric method)",water solubility (stated in words) (water solubility)
"COc1ccc(-c2ccnc(Nc3ccc(S(=O)(=O)NCCCN(C)C)cc3)n2)cc1F [Compound 3, N-(3-(dimethylamino)propyl)-4-(4-(3-fluoro-4-methoxyphenyl)pyrimidin-2-ylamino)benzenesulfonamide]",high,low,not detectable,
"COc1ccc(-c2ccnc(Nc3ccc(S(=O)(=O)NCCCN(C)C)cc3)n2)cc1F.O=C(O)CCC(=O)O [Example 1, Mono-Succinate Salt of N-(3-(dimethylamino)propyl)-4-(4-(3-fluoro-4-methoxyphenyl)pyrimidin-2-ylamino)benzenesulfonamide]",,,,water soluble
